Test results reported in patent US7671181B2, “Polynucleotides encoding coccidian parasite casein kinase I, a chemotherapeutic target for antiprotozoal agents” (Merck Sharp & Dohme Corp., priority 2004, dated 2010).
pIC50: −log10 of the molar value.

Tests used:
EtCKIα = EtCKIα (Eimeria tenella, UniProt Q6QNL9); assay: Casein kinase assay, partially purified native EtCKIα; assay type: biochemical; conditions: partially purified native enzyme from Eimeria oocysts; read-out: IC50, nativeEtCKIα
Procedure: (§1) Protein kinase assays—Casein kinase activity was assayed essentially as described (Donald, R. G. K. et al., 2002, supra) using 96-well phosphocellulose plates (MAPH-NOB, Millipore; Billerica, Mass.) to capture ^33P-phosphorylated peptide or casein substrates. Kinase reactions were carried out in 40 μl volumes containing 25 mM Hepes, pH 7.4, 10 mM MgCl2, 20 mM β-glycerophosphate, 1 mM DTT, 250 μM substrate, 1 mg/mL BSA, 2 μM ATP, and 0.01 μM [γ-^33P]ATP (Perkin-Elmer, 3000 Ci/mmol). The reactions were initiated by the addition of enzyme and incubated at room temperature for 60 min. Casein (5% solution), partially dephosphorylated α-casein and β-casein were obtained from Sigma.
(§2) A variety of commercially available peptide substrates were evaluated. From Calbiochem (San Diego, Calif.): CKI substrate (RRKDLHDDEEDEAMSITA; SEQ ID NO:13); CKII substrate (RRADDSDDDDD; SEQ ID NO:14); Syntide-2 substrate (PLARTLSVAGLPGKK; SEQ ID NO:15); CaM kinase II substrate (281-291) (MHKNETVECLK; SEQ ID NO:16). From Promega: CKI substrate (DDDEESITRR; SEQ ID NO:17) and kemptide (LRRASLG; SEQ ID NO:18). From New England Biolabs (Beverly, Mass.): CKI phosphopeptide substrate (KRRRALS(p)VASLPGL; SEQ ID NO:19), and CKII substrate (RRREEETEEE; SEQ ID NO:20). PKG assays were performed with kemptide as substrate and 10 μM cGMP. CDPK was assayed with Syntide-2 substrate and in the presence of 100 μM CaCl2.
Partial purification of native EtCKIα—The inability to stably express recombinant EtCKIα in T. gondii provided impetus to purify native enzyme from E. tenella parasites (slide 5). A lysate was prepared from 2×10^10 unsporulated oocysts using previously published procedures (Gurnett, A. M. et al., 2002, supra). The first two steps of the purification scheme used were essentially scaled-up from the method described for the purification of native TgCKIα. The lysate was subjected to preparative HiLoad Q anion-exchange chromatography and fractions eluted with a NaCl gradient (0-1 M NaCl). […]

TgCDPK1 = target: T1, TgCDPK1 (Toxoplasma gondii, UniProt Q9BJF5); assay: CDPK assay with Syntide-2, T. gondii CDPK1; assay type: biochemical
T1 construct: The TgCDPK1 open reading frame was amplified by PCR from a Toxoplasma cDNA library; made in house
Procedure: as §1, §2
Purification of recombinant TgCDPK1 and TgPKG—The TgCDPK1 open reading frame was amplified by PCR from a Toxoplasma cDNA library, using primers based on the published sequence (Kieschnick et al., 2001, supra): sense primer, […] (SEQ ID NO:44); and, antisense primer, […] (SEQ ID NO:45). A C-terminal FLAG epitope tag was appended to the TgCDPK1 open reading frame by an additional round of PCR amplification (KOD polymerase) and the resulting DNA fragment was sub-cloned into a tubulin promoter expression vector (Donald and Liberator, 2002, supra). […]

FLAGTgCDPK3 = FLAGTgCDPK3 (Toxoplasma gondii, UniProt A0A125YQG4); assay: Protein kinase assay, FLAGTgCDPK3; assay type: biochemical; conditions: read-out: IC50, FLAGTgCDPK3; recombinant enzyme, dose response titrations
Procedure: as §1, §2

FLAGEtCDPK1 = FLAGEtCDPK1 (Eimeria tenella, UniProt Q3HNM4); assay: Protein kinase assay, FLAGEtCDPK1; assay type: biochemical; conditions: recombinant enzyme, dose response titrations
Procedure: as §1, §2

EtPKG = target: T2, EtPKG (Eimeria tenella, UniProt Q8MMZ8); assay: PKG assay with kemptide, native EtPKG; assay type: biochemical; conditions: native enzyme from Eimeria oocysts; read-out: IC50, nativeEtPKG
T2 construct: Eimeria oocysts (EtCKIα and EtPKG); from tissue; host or cells: Eimeria oocysts
Procedure: as §1, §2

TgCKIα = TgCKIα (Toxoplasma gondii, UniProt Q6QNM1); assay: Casein kinase assay, TgCKIα (recombinant FLAGTgCKIα or partially purified native); assay type: biochemical; parameters: Km(app), native TgCKIα; other: substrate titration, 2 μM ATP; IC50, nativeTgCKIα; other: partially purified native enzyme from Toxoplasma tachyzoites; sensitivity of native TgCKIα phosphopeptide kinase activity (HiTrapQ fractions 5-9); other: 0.2 μM hymenialdisine or 1
Procedure: as §1, with “The reactions were initiated by the addition of enzyme and incubated at room temperature for 60 min.” left out
as §2
Purification of recombinant CKI enzymes—E. coli strain BL21 Origami™ (Novagen) was transformed with FLAGTgCKIα and FLAGTgCKIβ expression vectors, and colonies were expanded into 250 mL LB cultures grown at 37° C. Expression was induced with 1 mM IPTG once cultures had reached an OD600nm of 0.3-0.5, and the transformed bacteria were harvested 4-6 hours later. Cell pellets were resuspended in 15 mL of lysis buffer containing protease inhibitors and lysates prepared as described by the supplier (Bugbuster™ reagents, Novagen). The concentration of NaCl in the lysate was adjusted to 0.5 M, and 0.5 mL of FLAG-agarose beads were added (Sigma). The mixture was allowed to rock in a Nutator mixer (Becton-Dickinson; San Jose, Calif.) for 2 hours at 4° C. The slurry was then poured into an empty column and the matrix washed with 50 mL of wash buffer (50 mM Tris-HCl, pH 7.4, 0.5M NaCl, 10% glycerol, 1 mM DTT, 1 mM EDTA). […] Protein was measured with a micro-BCA reagent (Pierce) following a TCA-sodium deoxycholate step to remove residual FLAG peptide (Brown et al., 1989, Anal. Biochem. 180:136-139). […]
(§3) Preparations of FLAGTgCKIα and FLAGTgCKIβ were purified further on a SMART system FPLC 0.1 mL MonoQ anion exchange column (Pharmacia; New York, N.Y.) equilibrated in buffer A (50 mM Hepes, pH 7.4, 10% glycerol, 1 mM DTT) at room temperature. […] A linear salt gradient was applied (0-500 mM in 3 mL at 100 μl/min) and 100 μl fractions were collected and analyzed by SDS-PAGE and for CKI activity. […]

T. gondii = assay: Parasite growth inhibition, modified [3H]-uracil uptake assay in infected HFF cell monolayers; assay type: cell-based, Toxoplasma gondii; conditions: Toxoplasma gondii, HFF
Source text: Host cells and parasite cultures—RH strain or RH ΔHXGPRT strain tachyzoites of T. gondii were maintained by serial passage in confluent monolayers of human foreskin fibroblasts (“HFF”) as described (Roos, D. S. et al., 1994, Methods Cell Biol. 45:27-63). A modified [^3H]-uracil uptake assay (Pfefferkorn, E. R. and Pfefferkorn, L. C., 1977, J. Protozool. 24:449-453) adapted for use in 96-well scintillation plates (Cytostar-T, Amersham; Piscataway, N.J.) was used to measure parasite growth inhibition. Each well, previously seeded with HFF cells, was inoculated with T. gondii tachyzoites (2×10^4) in 200 μl of growth media containing 2 μCi [5,6]-^3H-uracil (Perkin-Elmer NEN; Boston, Mass.) and serially diluted compound. Following incubation at 37° C. for 36-48 hours, tritium-incorporation into host cell monolayers was directly counted in a microplate scintillation counter (MicroBeta, PerkinElmer-Wallac).
The only other CDK inhibitor with sub-μM activity against T. gondii was indirubin-3′-monoxime, which gave an IC50 value of 500 nM.

[1] = target: T3, Toxoplasma gondii casein kinase I alpha (TgCKIα), recombinant FLAG-tagged or native, SEQ ID NO:4 (Toxoplasma gondii, UniProt Q6QNM1); assay: Casein kinase assay, inhibition of TgCKIα (recombinant or native forms); assay type: biochemical
T3 construct: same protein
Procedure: as §1
A variety of commercially available peptide substrates were evaluated. From Calbiochem (San Diego, Calif.): CKI substrate (RRKDLHDDEEDEAMSITA; SEQ ID NO:13); CKII substrate (RRADDSDDDDD; SEQ ID NO:14); Syntide-2 substrate (PLARTLSVAGLPGKK; SEQ ID NO:15); CaM kinase II substrate (281-291) (MHKNETVECLK; SEQ ID NO:16). […]
as §3

[2] = target: T4, Toxoplasma gondii calmodulin domain-like protein kinase 1 (FLAGTgCDPK1, recombinant) (Toxoplasma gondii, UniProt Q9BJF5); assay: Kinase assay, inhibition of recombinant TgCDPK1; assay type: biochemical; conditions: CDK inhibitor study (text to Table 2)
T4 construct: FLAG (C); made in house; host or cells: transgenic Toxoplasma gondii parasites
Procedure: as §1
A variety of commercially available peptide substrates were evaluated. […]
Purification of recombinant TgCDPK1 and TgPKG—The TgCDPK1 open reading frame was amplified by PCR from a Toxoplasma cDNA library, using primers based on the published sequence (Kieschnick et al., 2001, supra): sense primer, […] […] A C-terminal FLAG epitope tag was appended to the TgCDPK1 open reading frame by an additional round of PCR amplification (KOD polymerase) and the resulting DNA fragment was sub-cloned into a tubulin promoter expression vector (Donald and Liberator, 2002, supra). […]

T2 sequence (Q8MMZ8 whole entry): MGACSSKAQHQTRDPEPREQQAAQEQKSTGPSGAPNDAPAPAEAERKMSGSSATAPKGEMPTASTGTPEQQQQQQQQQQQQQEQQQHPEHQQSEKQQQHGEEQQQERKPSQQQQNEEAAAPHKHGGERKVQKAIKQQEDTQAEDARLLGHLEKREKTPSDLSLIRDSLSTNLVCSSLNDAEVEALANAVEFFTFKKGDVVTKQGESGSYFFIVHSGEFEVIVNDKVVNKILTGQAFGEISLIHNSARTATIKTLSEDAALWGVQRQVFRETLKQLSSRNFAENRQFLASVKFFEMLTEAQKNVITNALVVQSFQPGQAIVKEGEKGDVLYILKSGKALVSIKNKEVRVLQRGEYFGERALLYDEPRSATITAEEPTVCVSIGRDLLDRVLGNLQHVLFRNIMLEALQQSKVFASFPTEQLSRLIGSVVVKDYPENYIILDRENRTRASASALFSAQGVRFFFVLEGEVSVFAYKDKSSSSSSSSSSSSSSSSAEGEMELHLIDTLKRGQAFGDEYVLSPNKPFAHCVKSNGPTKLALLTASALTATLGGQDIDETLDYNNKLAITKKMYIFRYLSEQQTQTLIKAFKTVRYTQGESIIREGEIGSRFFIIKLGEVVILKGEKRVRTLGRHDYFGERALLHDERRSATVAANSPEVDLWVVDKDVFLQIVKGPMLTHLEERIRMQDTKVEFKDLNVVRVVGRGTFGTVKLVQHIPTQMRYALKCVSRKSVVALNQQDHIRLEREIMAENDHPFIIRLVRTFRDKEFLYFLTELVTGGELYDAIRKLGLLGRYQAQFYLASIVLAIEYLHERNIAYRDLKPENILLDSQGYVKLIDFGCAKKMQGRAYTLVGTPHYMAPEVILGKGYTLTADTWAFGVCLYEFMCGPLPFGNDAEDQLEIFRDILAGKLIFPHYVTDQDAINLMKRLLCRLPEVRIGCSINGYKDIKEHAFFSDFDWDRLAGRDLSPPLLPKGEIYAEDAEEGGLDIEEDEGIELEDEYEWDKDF
EtCKIα, sequence (Q6QNL9 whole entry): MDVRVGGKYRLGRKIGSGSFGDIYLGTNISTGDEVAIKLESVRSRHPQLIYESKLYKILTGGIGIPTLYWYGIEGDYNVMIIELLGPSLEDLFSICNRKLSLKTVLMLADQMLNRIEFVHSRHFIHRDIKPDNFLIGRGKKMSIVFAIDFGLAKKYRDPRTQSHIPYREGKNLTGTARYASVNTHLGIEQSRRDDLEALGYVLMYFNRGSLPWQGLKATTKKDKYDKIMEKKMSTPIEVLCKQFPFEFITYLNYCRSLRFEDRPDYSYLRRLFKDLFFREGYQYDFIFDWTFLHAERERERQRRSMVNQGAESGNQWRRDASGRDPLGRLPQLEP
FLAGEtCDPK1, sequence (Q3HNM4 entry or part of it): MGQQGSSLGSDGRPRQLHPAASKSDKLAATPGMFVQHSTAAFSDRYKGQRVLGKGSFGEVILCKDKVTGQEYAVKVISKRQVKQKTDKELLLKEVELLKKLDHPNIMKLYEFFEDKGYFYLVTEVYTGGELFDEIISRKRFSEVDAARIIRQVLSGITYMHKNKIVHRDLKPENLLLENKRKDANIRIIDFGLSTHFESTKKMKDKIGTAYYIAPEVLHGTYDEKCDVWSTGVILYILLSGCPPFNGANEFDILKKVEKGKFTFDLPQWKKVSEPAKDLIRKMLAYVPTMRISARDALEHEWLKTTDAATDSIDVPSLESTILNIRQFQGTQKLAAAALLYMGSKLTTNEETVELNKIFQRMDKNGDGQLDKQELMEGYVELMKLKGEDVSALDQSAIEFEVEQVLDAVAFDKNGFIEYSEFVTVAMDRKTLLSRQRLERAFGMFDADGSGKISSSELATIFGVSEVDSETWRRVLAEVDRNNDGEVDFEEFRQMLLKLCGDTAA
T4 sequence (Q9BJF5 entry or part of it): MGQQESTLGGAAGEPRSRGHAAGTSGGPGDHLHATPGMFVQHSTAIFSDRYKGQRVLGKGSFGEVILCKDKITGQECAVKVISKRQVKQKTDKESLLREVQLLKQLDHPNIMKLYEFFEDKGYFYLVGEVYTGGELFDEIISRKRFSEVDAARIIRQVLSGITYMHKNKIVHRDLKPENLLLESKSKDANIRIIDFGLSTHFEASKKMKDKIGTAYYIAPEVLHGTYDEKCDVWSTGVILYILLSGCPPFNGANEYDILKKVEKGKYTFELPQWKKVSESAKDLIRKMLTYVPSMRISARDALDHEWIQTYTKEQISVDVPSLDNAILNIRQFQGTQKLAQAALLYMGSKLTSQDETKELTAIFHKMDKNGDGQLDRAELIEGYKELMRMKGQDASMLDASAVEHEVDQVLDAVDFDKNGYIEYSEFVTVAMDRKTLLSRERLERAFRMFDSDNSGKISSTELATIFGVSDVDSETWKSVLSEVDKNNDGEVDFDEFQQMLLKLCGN
T1 sequence (Q9BJF5 entry or part of it): as above
FLAGTgCDPK3, sequence (A0A125YQG4 entry or part of it): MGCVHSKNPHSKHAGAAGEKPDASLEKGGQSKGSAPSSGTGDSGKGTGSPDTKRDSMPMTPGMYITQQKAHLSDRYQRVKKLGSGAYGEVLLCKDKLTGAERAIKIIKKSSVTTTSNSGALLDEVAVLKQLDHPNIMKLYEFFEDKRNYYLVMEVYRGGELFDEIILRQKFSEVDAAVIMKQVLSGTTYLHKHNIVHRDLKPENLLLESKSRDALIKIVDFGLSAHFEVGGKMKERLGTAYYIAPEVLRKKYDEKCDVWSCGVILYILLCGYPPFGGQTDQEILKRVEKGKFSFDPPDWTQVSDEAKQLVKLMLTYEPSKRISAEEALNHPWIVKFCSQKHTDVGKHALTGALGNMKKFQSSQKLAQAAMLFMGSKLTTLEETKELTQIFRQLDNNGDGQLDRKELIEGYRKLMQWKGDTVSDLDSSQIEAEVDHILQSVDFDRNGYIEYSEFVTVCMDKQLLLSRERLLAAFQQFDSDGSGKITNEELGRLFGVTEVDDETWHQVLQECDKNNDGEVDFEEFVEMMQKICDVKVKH
TgCKIα, sequence (Q6QNM1 whole entry, looked up): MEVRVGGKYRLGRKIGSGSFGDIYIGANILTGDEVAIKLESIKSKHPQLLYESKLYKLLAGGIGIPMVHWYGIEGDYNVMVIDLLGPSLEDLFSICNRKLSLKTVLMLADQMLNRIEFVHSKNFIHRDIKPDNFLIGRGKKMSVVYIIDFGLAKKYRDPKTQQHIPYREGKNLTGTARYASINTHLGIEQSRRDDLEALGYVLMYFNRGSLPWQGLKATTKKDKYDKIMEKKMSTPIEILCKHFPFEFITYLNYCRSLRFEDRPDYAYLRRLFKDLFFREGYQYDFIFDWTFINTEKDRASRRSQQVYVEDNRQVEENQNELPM
T3 sequence (Q6QNM1 whole entry): as the sequence (Q6QNM1 whole entry, looked up) above

Row | SMILES | pIC50 (EtCKIα) | pIC50 (TgCDPK1) | pIC50 (FLAGTgCDPK3) | pIC50 (FLAGEtCDPK1) | pIC50 (EtPKG) | pIC50 (TgCKIα) | pIC50 (T. gondii) | pIC50 [1] | pIC50 [2]
1 | CN1CCC(c2ccn3c(-c4ccnc(N)n4)c(-c4ccc(F)cc4)nc3c2)CC1 [Compound 39, 4[2-(4-Fluorophenyl)1-7-(1-methylpiperidin-4-yl)imidazo[1,2-a]pyridin-3-yl]pyrimidin-2-amine] | 7.16 | 9.30 | < 5.00 | 6.90 | 9.30 | 7.82 |  |  | 
2 | O=C1Nc2ccccc2/C1=C1/Nc2ccccc2/C1=N\O [indirubin-3′-monoxime] |  |  |  |  |  |  | 6.30 | 6.76 | 6.76
